# According to patent US10968231B2, “Substituted cyclyl-acetic acid derivatives for the treatment of metabolic disorders” (TAKEDA PHARMACEUTICAL COMPANY LIMITED, priority 2017, dated 2021):
# Biological target: T1, human GPR40 (Homo sapiens, UniProt O14842)
# T1 construct: expressed in transfected cells
# Assay: Evaluation of human GPR40 agonist activity with increase in intracellular Ca2+ concentration as an index (FLIPR)
# Type: cell-based
# Details: test compound at final concentration of 1 μM; CHO(dhfr−) cells stably expressing human GPR40; 100% = activity of 10 μM of compound of WO 2015/020184 Example 153, 0% = DMSO
# Description: Evaluation of Human GPR40 Agonist Activity with Increase in Intracellular Ca^2+ Concentration as an Index
# CHO(dhfr−) cells that stably expressed human GPR40 were suspended in MEMα (Wako Pure Chemical Industries, Ltd.) containing 10% dialyzed serum (Thermo Fisher Scientific), 10 mM HEPES (Thermo Fisher Scientific), 100 U/mL penicillin, 100 μg/mL streptomycin (Wako Pure Chemical Industries, Ltd.), and plated on a 384 well black/clear cell culture plate at 10,000 cells/well. After culture overnight in a CO2 incubator at 37° C., the culture supernatant was removed, and loading buffer [Ca^2+ probe attached to Calcium Kit II-iCellux (DOJINDO) was dissolved in assay buffer (20 mM HEPES, 0.1% fatty acid-free BSA (Wako Pure Chemical Industries, Ltd.), 2.5 mM probenecid (DOJINDO)-containing HBSS (Thermo Fisher Scientific))] was added at 30 μL/well. After leaving for 1 hr at room temperature under light shielding, assay buffer containing the test compound at a final concentration of 1 μM was added at 10 μL/well in fluorescence plate reader FLIPR Tetra (Molecular Devices), and the fluorescence amount was successively measured. Human GPR40 agonist activity was calculated using an increase in the intracellular Ca^2+ concentration as an index, wherein the activity of 10 μM of the compound of WO 2015/020184 (Example 153: 3-cyclopropyl-3-(2-((1-(2-((2-fluoro-2-methylpropyl)(4-methylpyridin-2-yl)carbamoyl)-5-methoxyphenyl)piperidin-4-yl)methoxy)pyridin-4-yl)propanoic acid) was 100%, and the activity when DMSO was added instead of the test compound was 0%.
# T1 sequence (O14842 whole entry): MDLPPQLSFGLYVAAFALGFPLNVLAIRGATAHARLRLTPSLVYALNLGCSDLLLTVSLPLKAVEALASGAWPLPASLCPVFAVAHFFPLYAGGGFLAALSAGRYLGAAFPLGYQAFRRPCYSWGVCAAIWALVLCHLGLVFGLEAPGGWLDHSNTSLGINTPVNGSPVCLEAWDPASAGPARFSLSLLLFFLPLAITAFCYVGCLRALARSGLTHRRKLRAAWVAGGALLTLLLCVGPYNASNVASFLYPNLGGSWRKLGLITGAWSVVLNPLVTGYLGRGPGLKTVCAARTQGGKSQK
row,Compound,activity (human GPR40 agonist activity)
1,"COc1cc(N2CCC(COc3cc4c(cn3)OCCC4CC(=O)O)CC2)c(C2CCN(CC(F)(F)F)CC2)cn1 (single isomer, unassigned) [Example 6, (6-((1-(2-methoxy-5-(1-(2,2,2-trifluoroethyl)piperidin-4-yl)pyridin-4-yl)piperidin-4-yl)methoxy)-3,4-dihydro-2H-pyrano[2,3-c]pyridin-4-yl)acetic acid]",59%
2,"COc1ccc(C2CCN(CC(F)(F)F)CC2)c(N2CCC(COc3cc4c(cn3)CCC4CC(=O)O)CC2)c1 (stereo not shown) [Example 4, (3-((1-(5-methoxy-2-(1-(2,2,2-trifluoroethyl)piperidin-4-yl)phenyl)piperidin-4-yl)methoxy)-6,7-dihydro-5H-cyclopenta[c]pyridin-5-yl)acetic acid]",108%
3,"COc1ccc(CCC(F)(F)F)c(N2CCC(COc3cc4c(cn3)OCCC4CC(=O)O)CC2)c1 (stereo not shown) [Example 1, (6-((1-(5-methoxy-2-(3,3,3-trifluoropropyl)phenyl)piperidin-4-yl)methoxy)-3,4-dihydro-2H-pyrano[2,3-c]pyridin-4-yl)acetic acid]",107%
4,"COc1cc(N2CCC(COc3cc4c(cn3)OCCC4CC(=O)O)CC2)c(C2CCN(CC(F)(F)F)CC2)cn1 (single isomer, unassigned) [Example 7, (6-((1-(2-methoxy-5-(1-(2,2,2-trifluoroethyl)piperidin-4-yl)pyridin-4-yl)piperidin-4-yl)methoxy)-3,4-dihydro-2H-pyrano[2,3-c]pyridin-4-yl)acetic acid]",107%
5,"COc1cc(N2CCC(COc3cc4c(cn3)OCCC4CC(=O)O)CC2)c(C2CCN(CC(F)(F)F)CC2)cn1 (single isomer, unassigned) [Example 5, (6-((1-(2-methoxy-5-(1-(2,2,2-trifluoroethyl)piperidin-4-yl)pyridin-4-yl)piperidin-4-yl)methoxy)-3,4-dihydro-2H-pyrano[2,3-c]pyridin-4-yl)acetic acid]",111%
6,"COc1cc(N2CCC(COc3cc4c(cn3)CCC4CC(=O)O)CC2)c(OCC(F)(F)C(F)(F)F)cn1 (stereo not shown) [Example 3, (3-((1-(2-methoxy-5-(2,2,3,3,3-pentafluoropropoxy)pyridin-4-yl)piperidin-4-yl)methoxy)-6,7-dihydro-5H-cyclopenta[c]pyridin-5-yl)acetic acid]",109%
7,"COc1ccc(CCC(F)(F)F)c(N2CCC(COc3cc4c(cn3)OCCC4CC(=O)O)CC2)c1 (stereo not shown) [Example 8, (6-((1-(5-methoxy-2-(3,3,3-trifluoropropyl)phenyl)piperidin-4-yl)methoxy)-3,4-dihydro-2H-pyrano[2,3-c]pyridin-4-yl)acetic acid]",103%
8,"COc1cc(N2CCC(COc3cc4c(cn3)OCCC4CC(=O)O)CC2)c(OCC(F)(F)C(F)(F)F)cn1 (stereo not shown) [Example 2, (6-((1-(2-methoxy-5-(2,2,3,3,3-pentafluoropropoxy)pyridin-4-yl)piperidin-4-yl)methoxy)-3,4-dihydro-2H-pyrano[2,3-c]pyridin-4-yl)acetic acid]",108%

# Continued, values first:
row,activity (human GPR40 agonist activity),Compound
1,58%,"COc1cc(N2CCC(COc3cc4c(cn3)OCCC4CC(=O)O)CC2)c(OCC(F)(F)C(F)(F)F)cn1 (stereo not shown) [Example 17, (6-((1-(2-methoxy-5-(2,2,3,3,3-pentafluoropropoxy)pyridin-4-yl)piperidin-4-yl)methoxy)-3,4-dihydro-2H-pyrano[2,3-c]pyridin-4-yl)acetic acid]"
2,105%,"COc1ccc(C2CCN(CC(F)(F)F)CC2)c(N2CCC(COc3cc4c(cn3)CCC4CC(=O)O)CC2)c1 (stereo not shown) [Example 10, (3-((1-(5-methoxy-2-(1-(2,2,2-trifluoroethyl)piperidin-4-yl)phenyl)piperidin-4-yl)methoxy)-6,7-dihydro-5H-cyclopenta[c]pyridin-5-yl)acetic acid]"
3,54%,"COc1ccc(C2CCN(CC(F)(F)F)CC2)c(N2CCC(COc3cc4c(cn3)OCCC4CC(=O)O)CC2)c1 (stereo not shown) [Example 28, (6-((1-(5-methoxy-2-(1-(2,2,2-trifluoroethyl)piperidin-4-yl)phenyl)piperidin-4-yl)methoxy)-3,4-dihydro-2H-pyrano[2,3-c]pyridin-4-yl)acetic acid]"
4,41%,"COc1ccc(CCC(F)(F)F)c(N2CCC(COc3cc4c(cn3)OCCC4CC(=O)O)CC2)c1 (stereo not shown) [Example 18, (6-((1-(5-methoxy-2-(3,3,3-trifluoropropyl)phenyl)piperidin-4-yl)methoxy)-3,4-dihydro-2H-pyrano[2,3-c]pyridin-4-yl)acetic acid]"
5,104%,"COc1ccc(C2CCN(CC(F)(F)F)CC2)c(N2CCC(COc3cc4c(cn3)OCCC4CC(=O)O)CC2)c1 (stereo not shown) [Example 9, (6-((1-(5-methoxy-2-(1-(2,2,2-trifluoroethyl)piperidin-4-yl)phenyl)piperidin-4-yl)methoxy)-3,4-dihydro-2H-pyrano[2,3-c]pyridin-4-yl)acetic acid]"
6,65%,"COc1ccc(C2CCN(CC(F)(F)F)CC2)c(N2CCC(COc3cc4c(cn3)CCC4CC(=O)O)CC2)c1 (stereo not shown) [Example 29, (3-((1-(5-methoxy-2-(1-(2,2,2-trifluoroethyl)piperidin-4-yl)phenyl)piperidin-4-yl)methoxy)-6,7-dihydro-5H-cyclopenta[c]pyridin-5-yl)acetic acid]"
7,110%,"COc1ccc(C2CCN(CC(F)(F)F)CC2)c(N2CCC(COc3cc4c(cn3)OCCC4CC(=O)O)CC2)c1 (stereo not shown) [Example 36, (6-((1-(5-methoxy-2-(1-(2,2,2-trifluoroethyl)piperidin-4-yl)phenyl)piperidin-4-yl)methoxy)-3,4-dihydro-2H-pyrano[2,3-c]pyridin-4-yl)acetic acid]"
8,107%,"COc1cc(N2CCC(COc3cc4c(cn3)OCCC4CC(=O)O)CC2)c(OCC(F)(F)C(F)(F)F)cn1 (stereo not shown) [Example 11, (6-((1-(2-methoxy-5-(2,2,3,3,3-pentafluoropropoxy)pyridin-4-yl)piperidin-4-yl)methoxy)-3,4-dihydro-2H-pyrano[2,3-c]pyridin-4-yl)acetic acid]"
